Measurements taken from article PMC4420714 (Peptides, 2015).
Entries after “also recorded” stand apart in the source; their conditions may differ. Like-named read-outs stand apart in the source and are kept apart here.

How the values were obtained:
[1] = molecular target: T1, PAC1-R (Homo sapiens, UniProt P41586); experiment: Binding of 125I-PACAP27 to PAC1-R stably transfected NIH 3T3 cells
T1 sequence (P41586 21-468): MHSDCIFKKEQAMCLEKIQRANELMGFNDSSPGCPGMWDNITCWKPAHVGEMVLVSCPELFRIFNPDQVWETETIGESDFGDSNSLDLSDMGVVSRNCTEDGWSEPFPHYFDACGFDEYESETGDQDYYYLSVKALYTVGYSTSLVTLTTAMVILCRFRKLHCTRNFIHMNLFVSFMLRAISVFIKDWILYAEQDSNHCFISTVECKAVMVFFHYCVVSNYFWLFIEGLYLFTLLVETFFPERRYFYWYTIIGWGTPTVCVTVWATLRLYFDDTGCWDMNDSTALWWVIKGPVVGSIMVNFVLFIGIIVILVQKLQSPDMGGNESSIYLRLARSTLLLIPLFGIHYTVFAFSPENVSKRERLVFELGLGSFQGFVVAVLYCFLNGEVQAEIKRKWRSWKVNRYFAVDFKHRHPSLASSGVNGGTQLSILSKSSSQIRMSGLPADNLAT

[2] = molecular target: T2, VPAC1-R (Homo sapiens, UniProt P32241); experiment: Binding of 125I-VIP to VPAC1-R/PANC-1 cells
T2 sequence (P32241 31-457): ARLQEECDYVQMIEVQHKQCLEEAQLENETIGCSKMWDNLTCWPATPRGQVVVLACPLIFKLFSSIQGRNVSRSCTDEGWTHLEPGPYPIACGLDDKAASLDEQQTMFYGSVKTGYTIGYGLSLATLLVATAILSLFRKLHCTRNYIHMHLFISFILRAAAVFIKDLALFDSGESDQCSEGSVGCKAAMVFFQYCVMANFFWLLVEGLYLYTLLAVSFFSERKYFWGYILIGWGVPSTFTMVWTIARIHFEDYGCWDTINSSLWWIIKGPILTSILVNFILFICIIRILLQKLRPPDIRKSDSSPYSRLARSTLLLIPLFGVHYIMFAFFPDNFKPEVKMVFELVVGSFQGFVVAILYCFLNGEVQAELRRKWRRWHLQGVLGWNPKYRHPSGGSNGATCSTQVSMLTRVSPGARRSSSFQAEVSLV

[3] = molecular target: T1, PAC1-R; experiment: [3H]cAMP generation in PAC1-R cells; assay type: cell-based
[4] = molecular target: T2, VPAC1-R; experiment: [3H]cAMP generation in VPAC1-R/PANC-1 cells; assay type: cell-based
[5] = molecular target: T3, VPAC2-R (Homo sapiens, UniProt P41587); experiment: [3H]cAMP generation in VPAC2-R/PANC-1 cells; assay type: cell-based; details: for maximal increase in cAMP, VPAC2-R/PANC-1 cells: over control
T3 sequence (P41587 24-438): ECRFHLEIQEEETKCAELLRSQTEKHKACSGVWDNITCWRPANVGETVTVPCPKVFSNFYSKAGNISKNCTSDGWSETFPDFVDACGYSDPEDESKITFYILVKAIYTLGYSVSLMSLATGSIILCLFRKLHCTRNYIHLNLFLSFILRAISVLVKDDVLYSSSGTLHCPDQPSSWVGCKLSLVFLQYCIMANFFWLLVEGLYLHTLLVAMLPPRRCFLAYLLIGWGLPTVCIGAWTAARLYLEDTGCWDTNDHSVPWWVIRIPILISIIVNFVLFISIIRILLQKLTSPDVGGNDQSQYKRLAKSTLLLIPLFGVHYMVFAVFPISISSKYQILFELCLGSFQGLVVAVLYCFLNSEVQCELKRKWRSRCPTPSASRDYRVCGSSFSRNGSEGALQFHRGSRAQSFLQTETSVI

[6] = molecular target: T3, VPAC2-R; experiment: Binding of 125I-PACAP27 to VPAC2-R/PANC-1 cells; details: ratio of binding IC50, analog vs native parent peptide
[7] = molecular target: T2, VPAC1-R; experiment: [3H]cAMP generation in T47D cells; assay type: cell-based; details: for [3H]cAMP T47D % max (agonist class): relative to PACAP38, up to 1 µM
[8] = molecular target: T1, PAC1-R; experiment: [3H]Inositol phosphate generation; assay type: cell-based; details: PAC1-R cells, IP EC50/cAMP EC50
[9] = molecular target: T1, PAC1-R; details: PAC1-R over VPAC1-R; ref [13]; cited from earlier work
[10] = ratio of binding IC50, analog vs native parent peptide

Substance | decrease in affinity for PAC1-R cells compared to native PACAP38 (or PACAP27) [1] | lower affinity for PAC1-R cells than VPAC1-R/PANC-1 cells [1] | maximal increase in cAMP, PAC1-R cells [3] [fold] | coupling ratio (IC50-binding affinity/EC50-cAMP generation), VPAC1-R/PANC-1 cells [4] [fold] | maximal increase in cAMP, VPAC2-R/PANC-1 cells [5] [fold] | decrease in affinity for VPAC2-R/PANC-1 cells compared to native PACAP38 (or PACAP27, VIP) [6] | higher potency for PAC1-R cells compared to VPAC1-R/PANC-1 cells [3] | higher potency for PAC1-R cells compared to VPAC2-R/PANC-1 cells [3] | decrease in affinity for VPAC1-R/PANC-1 cells compared to native PACAP38 (or PACAP27, VIP) [2, 10] [fold] | [3H]cAMP T47D % max (agonist class) [7] | further results
PACAP27 [reference compound] | 10 fold | 12 fold | 4.1 ± 1.5 | 1.2 | 6.5 ± 2.0 | – | – | – | – | – | higher affinity (selectivity) for PAC1-R cells over VPAC2-R/PANC-1 cells [1]: 2 fold; higher affinity than PACAP38 for VPAC1-R/PANC-1 cells ([2]; binding IC50 ratio): 6 fold; coupling ratio (IC50-binding affinity/EC50-cAMP generation), PAC1-R cells [3]: 94 fold; maximal increase in cAMP, VPAC1-R/PANC-1 cells ([4]; over control): 5.0 ± 0.7 fold; coupling ratio (IC50-binding affinity/EC50-cAMP generation), VPAC2-R/PANC-1 cells [5]: 4.8 fold
[D-Ser^2]PACAP38 [Peptide P16] | 11–30 fold | – | – | – | – | 15–500 fold | 2-to-5 fold | 12–140 fold | – | – | decrease in affinity for VPAC1-R/PANC-1 cells compared to native PACAP38 (or PACAP27, VIP) [2]: 100–500 fold
[Pro^3]VIP [Peptide P50] | – | – | – | – | – | > 500 fold | – | – | > 500 | Ag (1 µM, 68) | lower affinity for PAC1-R cells than VPAC1-R/PANC-1 cells ([1]; binding IC50 ratio, VPAC1-R preferring): 6–10 fold; [3H]cAMP PAC1-R % max (agonist class) ([3]; PAC1-R cells, relative to maximal stimulation by PACAP38, up to 1 µM): no agonist activity; also recorded: No Act; [3H]cAMP VPAC1-R/PANC-1 % max (agonist class) ([4]; VPAC1-R/PANC-1 cells, relative to PACAP38, up to 1 µM): Ag (1 µM, 68); [3H]cAMP T47D % max, agonist activity at 1 µM, still increasing ([7]; at 1 µM): Ag (1 µM, 68) % max; [3H]cAMP VPAC2-R/PANC-1 % max (agonist class) ([5]; VPAC2-R/PANC-1 cells, relative to PACAP38, up to 1 µM): Ag (1 µM, 52)
PACAP38 [reference compound] | – | – | 4.1 ± 1.5 | 2.5 | 6.5 ± 2.0 | – | – | – | – | – | maximal increase in cAMP, VPAC1-R/PANC-1 cells [4]: 5.0 ± 0.7 fold; less potent at stimulating [3H]IP (PLC) than cAMP [8]: 19 fold
[D-Ser^2]PACAP27 [Peptide P4] | 15–25 fold | 6–10 fold | – | – | – | 7 fold | 2-to-5 fold | 12–140 fold | 37 | pAg (90) | lower affinity for PAC1-R cells than VPAC2-R/PANC-1 cells [1]: 2–9 fold; [3H]cAMP T47D % max of partial agonist ([7]; partial agonist maximum): pAg (90) % max; PAC1-selectivity reported in a previous study [9]: 3 fold
